According to patent US6413972B1, “Nitrogen-containing heterocyclic compounds, their production and use” (Takeda Chemical Industries, Ltd., priority 1997, dated 2002):
Counter-ions that a name gives are not always drawn.

System: not given
Assay: not given
Settings: not given
With CCOC(=O)c1cn(Cc2c(F)cccc2F)c2nc(-c3ccc([N+](=O)[O-])cc3)c(CBr)n2c1=O [Example 7, 3-bromomethyl-8-(2,6-difluorobenzyl)-5,8-dihydro-2-(4-nitrophenyl)-5-oxoimidazo[1,2-a]pyrimidine-6-carboxylic acid ethyl ester] the melting point was 205 to 210 °C. Work on CCOC(=O)c1cn(Cc2c(F)cccc2F)c2nc(-c3ccc([N+](=O)[O-])cc3)c(CN(C)Cc3ccccc3)n2c1=O [Example 9, 8-(2,6-difluorobenzyl)-5,8-dihydro-3-(N-methyl-N-benzylaminomethyl)-2-(4-nitrophenyl)-5-oxoimidazo[1,2-a]pyrimidine-6-carboxylic acid ethyl ester] yielded a melting point of 187 to 189 °C. With CCOC(=O)c1cn(Cc2c(F)cccc2F)c2nc(-c3ccc([N+](=O)[O-])cc3)c(CO)n2c1=O [Example 11, 8-(2,6-difluorobenzyl)-5,8-dihydro-3-(hydroxymethyl)-2-(4-nitrophenyl)-5-oxoimidazo[1,2-a]pyrimidine-6-carboxylic acid ethyl ester] the melting point was 230 to 232 °C. In the case of CCNC(=O)Nc1ccc(-c2nc3n(Cc4c(F)cccc4F)cc(C(=O)OC(C)C)c(=O)n3c2CN(C)Cc2ccccc2)cc1 [Example 34, 8-(2,6-difluorobenzyl)-5,8-dihydro-2-[4-(ethylaminocarbonylamino)phenyl]-3-(N-methyl-N-benzylaminomethyl)-5-oxoimidazo[1,2-a]pyrimidine-6-carboxylic acid isopropyl ester], the melting point is reported as 198 to 200 °C. CON(C)C(=O)c1cn(Cc2c(F)cccc2F)c2nc(-c3ccc(N)cc3)c(CN(C)Cc3ccccc3)n2c1=O [Example 30, 8-(2,6-difluorobenzyl)-5,8-dihydro-2-(4-aminophenyl)-3-(N-methyl-N-benzylaminomethyl)-5-oxoimidazo[1,2-a]pyrimidine-6-(N-methyl-N-methoxy)carboxamide] gave a melting point of 89 to 91 °C. In the case of CN(Cc1ccccc1)Cc1c(-c2ccc(NC(=O)c3ccoc3)cc2)nc2n(Cc3c(F)cccc3F)cc(C(=O)c3ccccc3)c(=O)n12 [Example 31, 8-(2,6-difluorobenzyl)-5,8-dihydro-2-(3-furylcarbonylaminophenyl)-3-(N-methyl-N-benzylaminomethyl)-6-benzoyl-5-oxoimidazo [1,2-a]pyrimidine], the melting point is reported as 172 to 174 °C. CCNC(=O)Nc1ccc(-c2nc3n(Cc4c(F)cccc4F)cc(C(=O)OCC)c(=O)n3c2CN(C)Cc2ccccc2)cc1 [Example 15, 8-(2,6-difluorobenzyl)-5,8-dihydro-2-(4-ethylaminocarbonylaminophenyl)-3-(N-methyl-N-benzylaminomethyl)-5-oxoimidazo[1,2-a]pyrimidine-6-carboxylic acid ethyl ester] gave a melting point of 191 to 196 °C. For Cc1c(Cc2ccccc2)c(=O)n2c(CN(C)Cc3ccccc3)c(-c3ccc(NC(=O)OC(C)(C)C)cc3)nc2n1Cc1c(F)cccc1F [Example 19, 2-[4-(N-Boc-amino)phenyl]-8-(2,6-difluorobenzyl)-5,8-dihydro-3-(N-methyl-N-benzylaminomethyl)-6-benzyl-7-methyl-5-oxoimidazo[1,2-a]pyrimidine], the melting point was 179 to 184 °C. Work on CCOC(=O)c1cn(Cc2c(F)cccc2F)c2nc(-c3ccc(NC(=O)C(C)C)cc3)c(CN(C)Cc3ccccc3)n2c1=O [Example 14, 8-(2,6-difluorobenzyl)-5,8-dihydro-2-(4-isobutyrylaminophenyl)-3-(N-methyl-N-benzylaminomethyl)-5-oxoimidazo[1,2-a]pyrimidine-6-carboxylic acid ethyl ester] yielded a melting point of 98 to 103 °C. In the case of CCOC(=O)c1cnc2nc(-c3ccccc3)c(C)n2c1O [Example 1, 5-hydroxy-3-methyl-2-phenylimidazo[1,2-a]pyrimidine-6-carboxylic acid ethyl ester], the melting point is reported as 220 to 225 °C. With CCOC(=O)c1cn(Cc2c(F)cccc2F)c2nc(-c3ccc([N+](=O)[O-])cc3)c(C)n2c1=O [Example 5, 8-(2,6-difluorobenzyl)-5,8-dihydro-3-methyl-2-(4-nitrophenyl)-5-oxoimidazo[1,2-a]pyrimidine-6-carboxylic acid ethyl ester] the melting point was 219 to 221 °C. Compound Cc1c(-c2ccccc2)nc2n(Cc3c(F)cccc3F)cc(C(=O)CC(C)C)c(=O)n12 (as salt: hydrochloride) [Example 28, 8-(2,6-difluorobenzyl)-5,8-dihydro-2-phenyl-3-methyl-6-(3-methylbutyryl)-5-oxoimidazo[1,2-a]pyrimidine] has a melting point of 158 to 166 °C. CCOC(=O)c1cn(Cc2c(F)cccc2F)c2nc(-c3ccc(N)cc3)c(CN(C)Cc3ccccc3)n2c1=O [Example 12, 2-(4-aminophenyl)-8-(2,6-difluorobenzyl)-5,8-dihydro-3-(N-methyl-N-benzylaminomethyl)-5-oxoimidazo[1,2-a]pyrimidine-6-carboxylic acid ethyl ester] showed a melting point of 161 to 166 °C. In the case of CC(=O)N(C(=O)OC(C)(C)C)c1ccc(-c2nc3n(Cc4c(F)cccc4F)c(C)c(Cc4ccccc4)c(=O)n3c2C)cc1 [Example 17, 8-(2,6-difluorobenzyl)-5,8-dihydro-2-(4-(N-Boc-N-acetylamino)phenyl)-3-methyl-6-benzyl-7-methyl-5-oxoimidazo[1,2-a]pyrimidine], the melting point is reported as 176 to 177 °C.

Biological target: T1, human GnRH receptor (Homo sapiens, UniProt P30968)
T1 construct: expressed in transfected cells; host or cells: CHO (Chinese hamster ovary) cells; membrane fraction
T1 sequence (P30968 1-328): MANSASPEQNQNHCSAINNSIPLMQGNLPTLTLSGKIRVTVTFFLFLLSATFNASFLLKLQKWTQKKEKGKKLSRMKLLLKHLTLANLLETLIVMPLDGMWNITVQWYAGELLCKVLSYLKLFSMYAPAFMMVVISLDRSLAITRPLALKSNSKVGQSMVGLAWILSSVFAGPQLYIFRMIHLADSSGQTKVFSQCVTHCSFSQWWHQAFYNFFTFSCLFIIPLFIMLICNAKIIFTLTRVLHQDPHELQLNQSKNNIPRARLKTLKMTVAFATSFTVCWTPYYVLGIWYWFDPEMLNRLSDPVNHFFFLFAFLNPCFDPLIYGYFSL
Assay: 125I-leuprorelin binding inhibition on CHO cell membrane fraction containing human GnRH receptor
Settings: membrane fraction of human GnRH receptor-expressing CHO cells, 25° C. for 60 minutes, from a Hill plot
Protocol: To a tube containing 10 μl of a 3×10^−4 M aqueous solution of leuprorelin and 10 μl of 0.01 mg/ml lactoperoxidase, 10 μl (37 MBq) of a solution of Na^125I was added. After stirring, 10 μl of 0.001% H2O2 was added, and a reaction was carried out at about 15 to 25° C. for 20 minutes. By adding 700 μl of a 0.05% TFA (trifluoroacetic acid) solution, the reaction was stopped, followed by purification by reversed-phase HPLC. The HPLC conditions used are shown below. ^125I-leuprorelin was eluted at a retention time of 26 to 27 minutes. […]
The human membrane fraction prepared in paragraph (2) above was diluted with the assay buffer to yield a 200 μg/ml dilution, which was then dispensed at 188 μl per tube. […] To determine maximum binding quantity, a reaction mixture of 2 μl of 60% DMSO and 10 μl of 38 nM ^125I-leuprorelin was prepared. […]
After a reaction was carried out at 25° C. for 60 minutes, the reaction mixture was aspirated and filtered through a polyethyleneimine-treated Whatman glass filter (GF-F). After this filtration, the radioactivity of ^125I-leuprorelin remaining on the filter paper was measured, using a γ-counter.
The binding inhibition rate (%) for the subject compound (PMB) was calculated, using the equation: […]
Work on CCNC(=O)Nc1ccc(-c2nc3n(Cc4c(F)cccc4F)cc(C(=O)OCC)c(=O)n3c2CN(C)Cc2ccccc2)cc1 [Example 15, 8-(2,6-difluorobenzyl)-5,8-dihydro-2-(4-ethylaminocarbonylaminophenyl)-3-(N-methyl-N-benzylaminomethyl)-5-oxoimidazo[1,2-a]pyrimidine-6-carboxylic acid ethyl ester] yielded an IC50 of 0.5 nM.
